Where two headings read alike, the source gives them in different places.
Experiments:
rats = experiment: Orientating toxicological investigations on rats; format: in vivo; conditions: up to an oral dosage of 1000 mg./kg.
[1] = test system: maximum electroshock spasm (MES) in male mice (NMRI); experiment: MES test (maximum electroshock spasm), inhibition of the extensor spasm; format: in vivo; conditions: for responders at 100 mg/kg / ED50 / responders at 50 mg/kg: Mus musculus; for responders at 100 mg/kg / responders at 50 mg/kg: read-out: protective action after 1 hr. (MES test); for ED50: read-out: ED 50 in the MES test
[2] = Neurotoxicity observation (motility, muscle tonus, respiratory frequency, body temperature, general behaviour); set-up: species or system mice (NMRI); conditions: mouse, in vivo, po
Method: During the above-described experiments, the animals were observed during the whole of the experimental period (up to 4 hours) for signs of substance-caused changes of behaviour and neurotoxicity (motility, muscle tonus, respiratory frequency, body temperature and general behaviour).

[3] = po, 100 mg/kg p.o., mice, 1 hr., % of animals protected 100% against the extensor spasm
[4] = oral, mice, 1 hour after administration
[5] = read-out: Neurotoxic limiting dose in the mouse

With `COC1=CC(=O)O[C@H]1[C@H](O)c1ccccc1Cl` (relative stereo) [Example 64, threo-5-(2-chlorophenylhydroxymethyl)-4-methoxy-2(5H)-furanone] the mortality of rats (rats) was “no mortality of the animals”, the responders at 100 mg/kg [1, 3] was 100% and the ED50 [1, 4] was 19.8 mg/kg.
In the case of `COC1=CC(=O)O[C@H]1[C@H](O)c1ccccc1` (relative stereo) [Example 65, threo-4-methoxy-5-phenylhydroxymethyl-2(5H)-furanone], the mortality of rats (rats) is reported as “no mortality of the animals”, the responders at 100 mg/kg [1, 3] is reported as 79% and the ED50 [1, 4] is reported as 69 mg/kg.
For `COC1=CC(=O)O[C@H]1[C@H](O)c1ccc(Cl)cc1Cl` (relative stereo) [Example 79, threo-5-(2,4-dichlorophenylhydroxymethyl)-4-methoxy-2(5H)-furanone], the mortality of rats (rats) was “no mortality of the animals”, the responders at 100 mg/kg [1, 3] was 60% and the ED50 [1, 4] was 82.5 mg/kg.
In the case of `COC1=CC(=O)O[C@H]1[C@H](O)c1cc(Cl)ccc1Cl` (relative stereo) [Example 81, threo-5-(2,5-dichlorophenylhydroxymethyl)-4-methoxy-2(5H)-furanone], the mortality of rats (rats) is reported as “no mortality of the animals”, the responders at 100 mg/kg [1, 3] is reported as 100% and the ED50 [1, 4] is reported as 19.5 mg/kg.
`COC1=CC(=O)O[C@H]1[C@H](OC)c1ccc(Cl)cc1Cl` (relative stereo) [Example 111, threo-4-methoxy-5-[methoxy-(2,4-dichlorophenyl)-methyl]-2(5H)-furanone] showed a responders at 100 mg/kg [1, 3] of 100%.
Work on `COC1=CC(=O)O[C@H]1[C@H](OC)c1cc(Cl)ccc1Cl` (relative stereo) [Example 112, threo-4-methoxy-5-[methoxy-(2,5-dichlorophenyl)-methyl]-2(5H)-furanone] yielded a responders at 100 mg/kg [1, 3] of 100%.
With `COCO[C@H](c1ccccc1)[C@@H]1OC(=O)C=C1OC` (relative stereo) [Example 113, threo-4-methoxy-5-[methoxymethoxy-(phenyl)-methyl]-2(5H)-furanone] the responders at 100 mg/kg [1, 3] was 100%.
Work on `COCO[C@H](c1ccc(Cl)cc1Cl)[C@@H]1OC(=O)C=C1OC` (relative stereo) [Example 114, threo-4-methoxy-5-[methoxymethoxy-(2,4-dichlorophenyl)-methyl]-2(5H)-furanone] yielded a responders at 100 mg/kg [1, 3] of 10%.
`COCO[C@H](c1ccccc1F)[C@@H]1OC(=O)C=C1OC` (relative stereo) [Example 115, threo-4-methoxy-5-[methoxymethoxy-(2-fluorophenyl)-methyl]2(5H)-furanone] showed a responders at 100 mg/kg [1, 3] of 100%.
For `COCO[C@H](c1ccccc1C)[C@@H]1OC(=O)C=C1OC` (relative stereo) [Example 116, threo-4-methoxy-5-[methoxymethoxy-(2-methylphenyl)-methyl]-2(5H)-furanone], the responders at 100 mg/kg [1, 3] was 70%.
`COCO[C@H](c1ccccc1Br)[C@@H]1OC(=O)C=C1OC` (relative stereo) [Example 118, threo-4-methoxy-5-[methoxymethoxy-(2-bromophenyl)-methyl]-2(5H)-furanone] gave a responders at 100 mg/kg [1, 3] of 100%.
In the case of `COC1=CC(=O)O[C@H]1[C@H](OC)c1ccccc1F` (relative stereo) [Example 123, threo-4-methoxy-5-[methoxy-(2-fluorophenyl)-methyl]-2(5H)-furanone], the responders at 50 mg/kg ([1]; po, 50 mg/kg p.o., mice, 1 hr.) is reported as 100%.
`COC1=CC(=O)O[C@H]1[C@H](OC)c1ccccc1Br` (relative stereo) [Example 124, threo-4-methoxy-5-[methoxy-(2-bromophenyl)-methyl]-2(5H)-furanone] gave a responders at 50 mg/kg ([1]; po, 50 mg/kg p.o., mice, 1 hr.) of 100%.
`CCC1(C)CC(=O)NC1=O` (centres unmarked) [Ethosuximide, reference compound] showed a responders at 100 mg/kg [1, 3] of 0%, an ED50 [1, 4] of over 250 mg/kg and a TD50 [2] of 500 mg/kg.
Compound `COCC(OC)O[C@H](c1ccccc1Cl)[C@@H]1OC(=O)C=C1OC` (stereo partly drawn) [Example 121, threo-5-[1',2'-dimethoxyethoxy-(2-chlorophenyl)-methyl]-4-methoxy-2(5H)-furanone] has a responders at 50 mg/kg ([1]; po, 50 mg/kg p.o., mice, 1 hr.) of 70%.
In the case of `NC(=O)N1c2ccccc2C=Cc2ccccc21` [carbamazepine, reference compound], the responders at 50 mg/kg ([1]; po, 50 mg/kg p.o., mice, 1 hr.) is reported as 100%, the ED50 [1, 4] is reported as 14.6 mg/kg and the TD50 [2] is reported as 100 mg/kg.
In the case of `O=C1NC(=O)C(c2ccccc2)(c2ccccc2)N1` [diphenylhydantoin, reference compound], the ED50 ([1]; 1 h, (4 h), mice) is reported as 9.1 mg/kg, the responders at 50 mg/kg ([1]; po, 50 mg/kg p.o., mice, 1 hr.) is reported as 100% and the TD50 [2] is reported as 100 mg/kg.
In the case of `CCCC(C)C1(CC)C(=O)NC(=O)NC1=O` (centres unmarked) [pentobarbital, reference compound], the ED50 ([1]; sc, 1 h) is reported as 35.2 mg/kg and the TD50 [2, 5] is reported as 60 mg/kg.
For `CCC1(c2ccccc2)C(=O)NC(=O)NC1=O` [phenobarbital, reference compound], the ED50 ([1]; po, 1 h) was 19.2 mg/kg, the responders at 100 mg/kg ([1]; po, 1 h) was 100% and the TD50 [2, 5] was 60 mg/kg.
In the case of `CCCC(CCC)C(=O)O` [valproic acid, reference compound], the ED50 ([1]; ip, 1 h) is reported as 205 mg/kg, the responders at 100 mg/kg ([1]; po, 1 h) is reported as 0% and the TD50 [2, 5] is reported as 350 mg/kg.
In the case of “threo-4-methoxy-5-(α-hydroxy-β-phenylethyl)-2(5H)-furanone [Example 104]”, the “protective action after 1 hr. (MES test)” value ([1]; 100 mg/kg p.o., mice, 1 hr., % of animals protected 100% against the extensor spasm) is reported as 37.5%.
In the case of “threo-5-[1'-ethoxypropoxy-(2-chlorophenyl)-methyl]-4-methoxy-2-(5H)-furanone [Example 122]”, the “protective action after 1 hr. (MES test)” value ([1]; 50 mg/kg p.o., mice, 1 hr.) is reported as 100%.

From patent publication US4855320A, “5-arylalkyl-4-alkoxy-2(5H)-furanones, intermediates and processes for the preparation thereof and medicaments containing them” (Dr. Willmar Schwabe GmbH & Company, priority 1986, dated 1989)
